Results on 2 compounds are retold here after ChEMBL document CHEMBL1157139, “A structural analysis of the differential cytotoxicity of chemicals in the NCI-60 cancer cell lines” (2008).

Holding throughout (type): functional
The test system of one test is NCI-H23. Put plainly: Cytotoxicity against human NCI-H23 cells. Conditions: for CC50: read-out: pLC50 (the source's name) (converted); for TGI: read-out: pTGI (converted).
The next test relates to NCI-H522. Put plainly: Cytotoxicity against human NCI-H522 cells. The note with it: for TGI: read-out: pTGI (converted).
The test system of a further test is A549. Put plainly: Cytotoxicity against human A549 cells. The note with it: for GI50: A549; for CC50: A549, read-out: pLC50 (converted); for TGI: A549, read-out: pTGI (converted).

Broadly, the GI50 is the concentration that inhibits growth by half. A lower GI50 goes with greater sensitivity of the cells. Take `O=C(O)c1ccccn1` [2-PICOLINIC ACID]: the figures for the GI50 with NCI-H23, with NCI-H522 and in the test on A549 were 61.8 µM, 0.693 µM and 65.2 µM, respectively. Moreover, the figures for the CC50 with NCI-H23 and in the test with A549 were 88.5 µM and over 100 µM, respectively. Moreover, the results for the TGI in the test on NCI-H23, in the test with NCI-H522 and in the test with A549 were 74 µM, 1.05 µM and 82 µM, respectively.

As to `C[C@@H]1C[C@@H]([C@H](O)CC2CC(=O)NC(=O)C2)C(=O)[C@@H](C)C1` [CYCLOHEXIMIDE], the GI50 in the test on NCI-H23, in the test with NCI-H522 and with A549 was over 100 µM each time. The CC50 in the test with NCI-H23 and in the test on A549 was over 100 µM throughout. The TGI in the test with NCI-H23, in the test with NCI-H522 and with A549 was over 100 µM throughout.
